Series [1] has as its system SiHa cells. Description: IC50 assay (inhibition of proliferation, 4 h exposure, SRB). The following applies: SiHa; for IC50: Homo sapiens, 4 h. How it is done: Cells were seeded in 96-well plates (SiHa or FaDu 1500 cells/well, UT-SCC-74B 800 cells/well) in 100 μL. After incubation for 2 h, the drugs were added in 50 μL of the same titrated medium at 3× the final concentration to duplicate the wells. After a further 4 h the plates were checked for drug precipitation using a phase contrast microscope, then drugs were removed by aspirating and washing with the standard (pH 7.4) medium, then aspirating again and adding 150 μL of the medium. Cultures were then grown for 5 days before staining with sulphorhodamine B and measuring absorbance, with the estimation of IC50 values using 4-parameter logistic regression, as previously carried out.
The medium and plasticware was equilibrated in the chamber for 3 days prior to use. In the anoxia experiments, FaDu cells were plated in poly-L-lysine coated plates (Corning Cat # 356461) to improve attachment.
Cells were subsequently grown under standard cell culture conditions (oxia, pHe 7.4) for 5 days before staining with sulforhodamine B (SRB). […] (B) SN30000 (2). (C) BTO acid 4a. Values are means and errors are ranges for duplicate cultures in a single experiment. Fitted curves are 4-parameter logistic regressions. PCR = pH cytotoxicity ratio. ACR = anoxia cytotoxicity ratio. TMR = tumor microenvironment ratio.

Series [2] deals with FaDu cells. Described as above. It counts as cell-based. The following applies: for IC50: Homo sapiens, 4 h.
Procedure: Cells were seeded in 96-well plates (SiHa or FaDu 1500 cells/well, UT-SCC-74B 800 cells/well) in 100 μL. After incubation for 2 h, the drugs were added in 50 μL of the same titrated medium at 3× the final concentration to duplicate the wells. After a further 4 h the plates were checked for drug precipitation using a phase contrast microscope, then drugs were removed by aspirating and washing with the standard (pH 7.4) medium, then aspirating again and adding 150 μL of the medium. Cultures were then grown for 5 days before staining with sulphorhodamine B and measuring absorbance, with the estimation of IC50 values using 4-parameter logistic regression, as previously carried out [85].
Series [3] is described as follows: Solubility in AlphaMEM + 5% FBS, pH 7.4. The conditions noted are these: culture medium (AlphaMEM + 5% FBS), pH 7.4, plasma or biological fluid.
Setting [4] is: read-out: Anoxic IC50, SiHa, pHe 6.5, 4 h, anoxic.
The mark [5] stands for this setting: read-out: Anoxic IC50, SiHa, pHe 7.4, 4 h, anoxic.
Setting [6] is: read-out: Oxic IC50, SiHa, pHe 6.5, 4 h, oxic.
Where [7] appears, read: read-out: Oxic IC50, SiHa, pHe 7.4, 4 h, oxic.
The mark [8] stands for this setting: pHe 6.5, 4 h, anoxic, read-out: Anoxic IC50.
The mark [9] stands for this setting: pHe 6.5, 4 h, oxic, read-out: Oxic IC50.
Where [10] appears, read: pHe 7.4, 4 h, anoxic, read-out: Anoxic IC50.
The mark [11] stands for this setting: pHe 7.4, 4 h, oxic, read-out: Oxic IC50.

Read-outs that look alike come from different tables or passages of the source.

Broadly, the IC50 is the concentration that inhibits the measured activity by half. What is called solubility is how much of the substance goes into solution per volume. For the molecule `CCOC(=O)CNc1n[n+]([O-])c2ccccc2[n+]1[O-]` [Compound 8b, Ethyl [(1,4-Dioxido-1,2,4-benzotriazin-3-yl)amino]acetate], the IC50 in series [1] (setting [4]) is 2.5 ± 0.87 µM; in series [1] (setting [5]), 1.2 ± 0.35 µM; in series [1] (setting [6]) it was 21.6 ± 5.7 µM; in series [1] (setting [7]), 35.3 ± 3.1 µM; in series [2] (setting [8]) it was 8.55 ± 1.92 µM; in series [2] (setting [9]), 76.1 ± 17.9 µM. Besides, the values for the IC50 in series [2] (setting [10]) and in series [2] (setting [11]) were 5.25 ± 1.18 µM and 102 ± 9 µM, respectively. Besides, the “TMR (overall TME ratio = oxic IC50 pHe 7.4/anoxic IC50 pHe 6.5)” value in series [1] is 14.1 ± 5.1. Besides, the “PCR Anoxic (IC50 at pHe 7.4/IC50 at pHe 6.5)” value (“PCR Anoxic” below) in series [1] is recorded as 0.48 ± 0.22; in series [2] (anoxic), 0.61 ± 0.02. For the same molecule, the “PCR oxic (IC50 at pHe 7.4/IC50 at pHe 6.5)” value (shortened to “PCR oxic”) in series [1] amounted to 1.63 ± 0.45; in series [2] (oxic), 1.34 ± 0.33. In addition, the “ACR (anoxic cytotoxicity ratio = oxic IC50/anoxic IC50)” value in series [1] (pHe 6.5) stood at 8.6 ± 3.8; in series [1] (pHe 7.4), 29.4 ± 8.9. For the same molecule, the “TMR (oxic IC50 pHe 7.4/anoxic IC50 pHe 6.5)” value in series [2] turned out to be 11.2 ± 2.9. Besides, the “ACR (oxic IC50/anoxic IC50)” value in series [2] (pHe 6.5) worked out at 8.89 ± 2.89; in series [2] (pHe 7.4), 19.3 ± 4.7. Further, the solubility in series [3] (thermodynamic from solid) stood at 8600 µM.

With `Cc1ccc2c(c1)[n+]([O-])nc(NCCCC(=O)O)[n+]2[O-]` [Compound 12a, 3-((3-Carboxypropyl)amino)-7-methylbenzo[e][1,2,4]triazine 1,4-Dioxide], the IC50 is 234 ± 17 µM in series [1] (setting [4]); greater than 300 µM in series [1] (setting [5]); greater than 300 µM in series [1] (setting [6]); greater than 300 µM in series [1] (setting [7]); 271 ± 53 µM in series [2] (setting [8]); greater than 300 µM in series [2] (setting [9]). The IC50 in series [2] (setting [10]) and in series [2] (setting [11]) was greater than 300 µM throughout. Besides, the “TMR (overall TME ratio = oxic IC50 pHe 7.4/anoxic IC50 pHe 6.5)” value in series [1] is listed as greater than 1. For the same molecule, the “PCR Anoxic” value in series [1] and in series [2] (anoxic) was greater than 1 throughout. In addition, the “ACR (anoxic cytotoxicity ratio = oxic IC50/anoxic IC50)” value in series [1] (pHe 6.5) was greater than 1. The “TMR (oxic IC50 pHe 7.4/anoxic IC50 pHe 6.5)” value in series [2] is greater than 1. For the same molecule, the “ACR (oxic IC50/anoxic IC50)” value in series [2] (pHe 6.5) is greater than 1. In series [3] (kinetic from dmso stock), the solubility was greater than 890 µM.

Turning to `COC(=O)CCNc1n[n+]([O-])c2cc3c(cc2[n+]1[O-])CCC3` [Compound 10b, 3-((3-Methoxy-3-oxopropyl)amino)-7,8-dihydro-6H-indeno[5,6-e][1,2,4]triazine 1,4-Dioxide], the IC50 turned out to be 21 ± 4.2 µM in series [1] (setting [4]); 20.4 ± 4.8 µM in series [1] (setting [5]); 208 ± 26 µM in series [1] (setting [6]); 249 ± 50 µM in series [1] (setting [7]); 40 ± 5.8 µM in series [2] (setting [8]); 262 ± 29 µM in series [2] (setting [9]). The IC50 in series [2] (setting [10]) was determined as 43.7 ± 12.1 µM; in series [2] (setting [11]), 292 ± 8 µM. For the same molecule, the “TMR (overall TME ratio = oxic IC50 pHe 7.4/anoxic IC50 pHe 6.5)” value in series [1] came out at 11.9 ± 3.4. Besides, the “PCR Anoxic” value in series [1] was 0.97 ± 0.30; in series [2] (anoxic) it was 1.09 ± 0.34. Besides, the “PCR oxic” value stood at 1.20 ± 0.28 in series [1] and 1.11 ± 0.13 in series [2] (oxic). Further, the “ACR (anoxic cytotoxicity ratio = oxic IC50/anoxic IC50)” value in series [1] (pHe 6.5) was found to be 9.90 ±2.34; in series [1] (pHe 7.4) it was 12.2 ± 3.8. In addition, in series [2], the “TMR (oxic IC50 pHe 7.4/anoxic IC50 pHe 6.5)” value is reported as 7.31 ± 1.08. Moreover, the “ACR (oxic IC50/anoxic IC50)” value in series [2] (pHe 6.5) was found to be 6.56 ± 1.19; in series [2] (pHe 7.4), 6.69 ± 1.86. In series [3] (thermodynamic from solid), the solubility amounted to 350 µM.

With `CCOC(=O)CCCNc1n[n+]([O-])c2ccccc2[n+]1[O-]` [Compound 11b, 3-((4-Ethoxy-4-oxobutyl)amino)benzo[e][1,2,4]triazine 1,4-Dioxide], the IC50 was 4.36 ± 0.56 µM in series [1] (setting [4]); 3.55 ± 0.7 µM in series [1] (setting [5]); 13.2 ± 0.9 µM in series [1] (setting [6]); 14.5 ± 0.6 µM in series [1] (setting [7]); 36.3 ± 4.8 µM in series [2] (setting [8]); 274 ± 210 µM in series [2] (setting [9]). In addition, the IC50 turned out to be 29 ± 2 µM in series [2] (setting [10]) and 368 ± 98 µM in series [2] (setting [11]). In addition, in series [1], the “TMR (overall TME ratio = oxic IC50 pHe 7.4/anoxic IC50 pHe 6.5)” value turned out to be 3.32 ± 0.45. In addition, the “PCR Anoxic” value in series [1] stood at 0.81 ± 0.19; in series [2] (anoxic), 0.80 ± 0.12. In addition, the entries for the “PCR oxic” value in series [1] and in series [2] (oxic) were 1.10 ± 0.09 and 1.34 ± 1.09, respectively. In addition, the “ACR (anoxic cytotoxicity ratio = oxic IC50/anoxic IC50)” value in series [1] (pHe 6.5) is listed as 3.04 ±0.44; in series [1] (pHe 7.4) it was 4.08 ±0.82. For the same molecule, the “TMR (oxic IC50 pHe 7.4/anoxic IC50 pHe 6.5)” value in series [2] is recorded as 10.1 ± 3.0. The “ACR (oxic IC50/anoxic IC50)” value is 7.55 ± 5.87 in series [2] (pHe 6.5) and 12.7 ± 3.5 in series [2] (pHe 7.4). In series [3] (kinetic from dmso stock), the solubility came to 1400 µM.

Values taken from publication PMC6680510, “Benzotriazine Di-Oxide Prodrugs for Exploiting Hypoxia and Low Extracellular pH in Tumors” (Molecules, 2019).
